Reference: the supplement of paper PMC13380429

What was measured:
Conditions in all cases: 72 h
U2OS [1] = experiment: drug sensitivity score (DSS) for viability; higher = more toxic; extreme values may be limits of the assay
Caco-2 [2] = experiment: as above
HepG2 [3] = experiment: as above
Calu-3 [4] = experiment: as above
Vero E6 [5] = experiment: as above
U2OS [6] = experiment: cell viability relative to DMSO; higher = less toxic
Caco-2 [7] = experiment: as above
HepG2 [8] = experiment: as above
Calu-3 [9] = experiment: as above
Vero E6 [10] = experiment: as above
U2OS [11] = experiment: relative viability EC50 (midpoint between 100% and the lowest measured viability); higher = less toxic
Caco-2 [12] = experiment: as above
HepG2 [13] = experiment: as above
Calu-3 [14] = experiment: as above
Vero E6 [15] = experiment: as above

COc1c(C)cnc(Cn2cnc3c(Cl)nc(N)nc32)c1C [BIIB021]
drug sensitivity score (U2OS [1]): 14.5 | drug sensitivity score (Caco-2 [2]): 7.5 | drug sensitivity score (HepG2 [3]): 23.1 | drug sensitivity score (Calu-3 [4]): 9.3 | drug sensitivity score (Vero E6 [5]): 9.1 | cell viability (U2OS [6]; 1 nM): 99.4% | cell viability (U2OS [6]; 10 nM): 99.4% | cell viability (U2OS [6]; 100 nM): 93.3% | cell viability (U2OS [6]; 1000 nM): 27.7% | cell viability (U2OS [6]; 10000 nM): 4.4% | cell viability (Caco-2 [7]; 1 nM): 91% | cell viability (Caco-2 [7]; 10 nM): 101% | cell viability (Caco-2 [7]; 100 nM): 92.8% | cell viability (Caco-2 [7]; 1000 nM): 65.8% | cell viability (Caco-2 [7]; 10000 nM): 39.5% | cell viability (HepG2 [8]; 1 nM): 94% | cell viability (HepG2 [8]; 10 nM): 100% | cell viability (HepG2 [8]; 100 nM): 60.8% | cell viability (HepG2 [8]; 1000 nM): 1.5% | cell viability (HepG2 [8]; 10000 nM): 0.6% | cell viability (Calu-3 [9]; 1 nM): 102% | cell viability (Calu-3 [9]; 10 nM): 109% | cell viability (Calu-3 [9]; 100 nM): 105% | cell viability (Calu-3 [9]; 1000 nM): 49.4% | cell viability (Calu-3 [9]; 10000 nM): 39.4% | cell viability (Vero E6 [10]; 1 nM): 101% | cell viability (Vero E6 [10]; 10 nM): 104% | cell viability (Vero E6 [10]; 100 nM): 103% | cell viability (Vero E6 [10]; 1000 nM): 51.8% | cell viability (Vero E6 [10]; 10000 nM): 36.7% | relative viability EC50 (U2OS [11]): 0.495 µM | relative viability EC50 (Caco-2 [12]): 0.746 µM | relative viability EC50 (HepG2 [13]): 0.12 µM | relative viability EC50 (Calu-3 [14]): 0.538 µM | relative viability EC50 (Vero E6 [15]): 0.633 µM

O=C(O)c1ccc(-c2ccc3cc(O)c(C45CC6CC(CC(C6)C4)C5)cc3c2)cc1 [CD-1530]
drug sensitivity score (U2OS [1]): 0.1 | drug sensitivity score (Caco-2 [2]): 0.4 | drug sensitivity score (HepG2 [3]): 0 | drug sensitivity score (Calu-3 [4]): 0.1 | drug sensitivity score (Vero E6 [5]): 0 | cell viability (U2OS [6]; 1 nM): 98.2% | cell viability (U2OS [6]; 10 nM): 96% | cell viability (U2OS [6]; 100 nM): 97.7% | cell viability (U2OS [6]; 1000 nM): 93% | cell viability (U2OS [6]; 10000 nM): 86.2% | cell viability (Caco-2 [7]; 1 nM): 90.9% | cell viability (Caco-2 [7]; 10 nM): 98.9% | cell viability (Caco-2 [7]; 100 nM): 94.9% | cell viability (Caco-2 [7]; 1000 nM): 84.4% | cell viability (Caco-2 [7]; 10000 nM): 88% | cell viability (HepG2 [8]; 1 nM): 108% | cell viability (HepG2 [8]; 10 nM): 102% | cell viability (HepG2 [8]; 100 nM): 97.4% | cell viability (HepG2 [8]; 1000 nM): 124% | cell viability (HepG2 [8]; 10000 nM): 106% | cell viability (Calu-3 [9]; 1 nM): 95.9% | cell viability (Calu-3 [9]; 10 nM): 99.6% | cell viability (Calu-3 [9]; 100 nM): 98.8% | cell viability (Calu-3 [9]; 1000 nM): 98.5% | cell viability (Calu-3 [9]; 10000 nM): 88% | cell viability (Vero E6 [10]; 1 nM): 93.4% | cell viability (Vero E6 [10]; 10 nM): 103% | cell viability (Vero E6 [10]; 100 nM): 95.8% | cell viability (Vero E6 [10]; 1000 nM): 106% | cell viability (Vero E6 [10]; 10000 nM): 103% | relative viability EC50 (U2OS [11]): > 10 µM | relative viability EC50 (Caco-2 [12]): > 10 µM | relative viability EC50 (HepG2 [13]): > 10 µM | relative viability EC50 (Calu-3 [14]): > 10 µM | relative viability EC50 (Vero E6 [15]): > 10 µM

N#Cc1cccc(C(=O)Nc2cc(-c3ccccc3)nn2-c2ccccc2)c1 [CDPPB]
drug sensitivity score (U2OS [1]): 0 | drug sensitivity score (Caco-2 [2]): 0 | drug sensitivity score (HepG2 [3]): 0 | drug sensitivity score (Calu-3 [4]): 0 | drug sensitivity score (Vero E6 [5]): 0 | cell viability (U2OS [6]; 1 nM): 92.8% | cell viability (U2OS [6]; 10 nM): 97% | cell viability (U2OS [6]; 100 nM): 97.1% | cell viability (U2OS [6]; 1000 nM): 93.9% | cell viability (U2OS [6]; 10000 nM): 91.6% | cell viability (Caco-2 [7]; 1 nM): 93.3% | cell viability (Caco-2 [7]; 10 nM): 100% | cell viability (Caco-2 [7]; 100 nM): 108% | cell viability (Caco-2 [7]; 1000 nM): 95.4% | cell viability (Caco-2 [7]; 10000 nM): 102% | cell viability (HepG2 [8]; 1 nM): 106% | cell viability (HepG2 [8]; 10 nM): 103% | cell viability (HepG2 [8]; 100 nM): 97.8% | cell viability (HepG2 [8]; 1000 nM): 107% | cell viability (HepG2 [8]; 10000 nM): 104% | cell viability (Calu-3 [9]; 1 nM): 101% | cell viability (Calu-3 [9]; 10 nM): 95% | cell viability (Calu-3 [9]; 100 nM): 101% | cell viability (Calu-3 [9]; 1000 nM): 97.2% | cell viability (Calu-3 [9]; 10000 nM): 100% | cell viability (Vero E6 [10]; 1 nM): 98.5% | cell viability (Vero E6 [10]; 10 nM): 96.2% | cell viability (Vero E6 [10]; 100 nM): 98.6% | cell viability (Vero E6 [10]; 1000 nM): 99.2% | cell viability (Vero E6 [10]; 10000 nM): 103% | relative viability EC50 (U2OS [11]): > 10 µM | relative viability EC50 (Caco-2 [12]): > 10 µM | relative viability EC50 (HepG2 [13]): > 10 µM | relative viability EC50 (Calu-3 [14]): > 10 µM | relative viability EC50 (Vero E6 [15]): > 10 µM

CCN(CC)CCOc1ccc(Cc2ccccc2)cc1 [DPPE]
drug sensitivity score (U2OS [1]): 0 | drug sensitivity score (Caco-2 [2]): 0.1 | drug sensitivity score (HepG2 [3]): 0 | drug sensitivity score (Calu-3 [4]): 0 | drug sensitivity score (Vero E6 [5]): 0 | cell viability (U2OS [6]; 1 nM): 98.8% | cell viability (U2OS [6]; 10 nM): 104% | cell viability (U2OS [6]; 100 nM): 100% | cell viability (U2OS [6]; 1000 nM): 104% | cell viability (U2OS [6]; 10000 nM): 96.5% | cell viability (Caco-2 [7]; 1 nM): 100% | cell viability (Caco-2 [7]; 10 nM): 101% | cell viability (Caco-2 [7]; 100 nM): 96.7% | cell viability (Caco-2 [7]; 1000 nM): 105% | cell viability (Caco-2 [7]; 10000 nM): 84.6% | cell viability (HepG2 [8]; 1 nM): 112% | cell viability (HepG2 [8]; 10 nM): 98.4% | cell viability (HepG2 [8]; 100 nM): 107% | cell viability (HepG2 [8]; 1000 nM): 91.2% | cell viability (HepG2 [8]; 10000 nM): 94.4% | cell viability (Calu-3 [9]; 1 nM): 96% | cell viability (Calu-3 [9]; 10 nM): 89.7% | cell viability (Calu-3 [9]; 100 nM): 100% | cell viability (Calu-3 [9]; 1000 nM): 101% | cell viability (Calu-3 [9]; 10000 nM): 96.6% | cell viability (Vero E6 [10]; 1 nM): 108% | cell viability (Vero E6 [10]; 10 nM): 103% | cell viability (Vero E6 [10]; 100 nM): 107% | cell viability (Vero E6 [10]; 1000 nM): 103% | cell viability (Vero E6 [10]; 10000 nM): 96% | relative viability EC50 (U2OS [11]): > 10 µM | relative viability EC50 (Caco-2 [12]): > 10 µM | relative viability EC50 (HepG2 [13]): > 10 µM | relative viability EC50 (Calu-3 [14]): > 10 µM | relative viability EC50 (Vero E6 [15]): > 10 µM
